These results are taken from ChEMBL document CHEMBL1141131, “A selective estrogen receptor modulator designed for the treatment of uterine leiomyoma with unique tissue specificity for uterus and ovaries in rats” (J Med Chem, 2005).

The term Ki denotes the equilibrium dissociation constant of an inhibitor or competing ligand from its target. Read a low Ki as tighter binding. What is called IC50 is the concentration that gives 50% inhibition. A high value points to weaker potency.

For experiment [1], the target named is T1, Estrogen receptor (Rattus norvegicus, UniProt P06211).
T1 sequence (P06211 whole entry): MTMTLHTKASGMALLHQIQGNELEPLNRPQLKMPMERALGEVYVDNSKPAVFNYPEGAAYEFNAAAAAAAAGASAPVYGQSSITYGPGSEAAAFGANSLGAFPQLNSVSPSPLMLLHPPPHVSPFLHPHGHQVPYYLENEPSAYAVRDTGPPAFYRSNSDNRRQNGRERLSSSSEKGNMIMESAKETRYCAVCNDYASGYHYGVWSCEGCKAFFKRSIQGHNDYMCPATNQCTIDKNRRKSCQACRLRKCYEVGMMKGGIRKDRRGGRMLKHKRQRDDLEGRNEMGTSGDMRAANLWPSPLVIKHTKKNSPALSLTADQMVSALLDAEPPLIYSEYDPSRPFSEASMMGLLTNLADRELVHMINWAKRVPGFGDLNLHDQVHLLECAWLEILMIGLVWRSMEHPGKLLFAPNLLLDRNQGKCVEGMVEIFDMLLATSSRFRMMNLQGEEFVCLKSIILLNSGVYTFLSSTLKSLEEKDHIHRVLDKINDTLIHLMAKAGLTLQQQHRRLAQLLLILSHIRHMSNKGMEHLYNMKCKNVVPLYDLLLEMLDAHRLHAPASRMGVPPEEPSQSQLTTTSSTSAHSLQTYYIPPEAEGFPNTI
Description: Binding affinity for rat estrogen receptor alpha

In experiment [2] the target is Estrogen receptor beta (Rattus norvegicus, UniProt Q62986).
Description: Binding affinity for rat estrogen receptor beta
Experiment [3] addresses T2, Estrogen receptor (Homo sapiens, UniProt Q92731+P03372). The settings on record: mcf7.
Description: Half maximal inhibitory concentration against estrogen-induced proliferation of MCF-7 breast cells by 10 pM E2
Experiment [4] concerns the target T2, Estrogen receptor. As to conditions: ishikawa.
Description: Inhibitory concentration against estrogen-induced proliferation of Ishikawa uterine cells by 1 nM E2

The structures appear in SMILES notation.

Chain of Estrogen receptor beta (Q62986 whole entry): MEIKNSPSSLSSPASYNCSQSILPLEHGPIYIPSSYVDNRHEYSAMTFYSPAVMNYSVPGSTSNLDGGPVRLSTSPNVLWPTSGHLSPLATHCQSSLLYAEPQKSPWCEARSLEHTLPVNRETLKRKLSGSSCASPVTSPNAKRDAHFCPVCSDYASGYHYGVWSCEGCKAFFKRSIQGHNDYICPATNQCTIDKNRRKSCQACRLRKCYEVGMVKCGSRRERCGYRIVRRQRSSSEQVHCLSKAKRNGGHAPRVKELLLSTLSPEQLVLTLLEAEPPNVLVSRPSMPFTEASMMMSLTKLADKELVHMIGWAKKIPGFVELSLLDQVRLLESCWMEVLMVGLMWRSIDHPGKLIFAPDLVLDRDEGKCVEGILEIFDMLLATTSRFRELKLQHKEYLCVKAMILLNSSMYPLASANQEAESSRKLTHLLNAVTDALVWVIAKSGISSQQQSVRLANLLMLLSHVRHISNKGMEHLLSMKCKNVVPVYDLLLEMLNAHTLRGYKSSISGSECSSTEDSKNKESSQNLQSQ

`CS(=O)(=O)c1ccc(-c2ccc3cc(O)ccc3c2Cc2ccc(OCCN3CCCCC3)cc2)cc1.Cl`: the Ki in experiment [1] came to 1.15 nM; in experiment [2], 24.1 nM. Also, the half-inhibitory concentration (IC50) in experiment [3] is given as 3.4 nM; in experiment [4], 4.78 nM.
On to `Cl.Oc1ccc2c(Oc3ccc(OCCN4CCCCC4)cc3)c(-c3ccc(F)cc3)ccc2c1`, for which the Ki stood at 0.25 nM in experiment [1] and 0.3 nM in experiment [2]. In addition, the figures for the IC50 in experiment [3] and in experiment [4] were 0.34 nM and 3.18 nM, respectively.
For `Cl.Oc1ccc(-c2ccc3cc(O)ccc3c2Cc2ccc(OCCN3CCCCC3)cc2)cc1`, the inhibition constant (Ki) came out at 0.2 nM in experiment [1] and 0.7 nM in experiment [2]. The half-maximal inhibitory concentration (IC50) in experiment [3] amounted to 0.2 nM; in experiment [4], 1.14 nM.
